Assay results: patent publication US8980587B2, “Process for producing reveromycin A or a synthetic intermediate thereof, process for producing compounds containing a spiroketal ring and novel antineoplastics, fungicides and therapeutic agents for bone disorders” (RIKEN, priority 2010, dated 2015)
≈ marks a conversion by molar mass, not a printed value. Read-outs that look alike come from different tables or passages of the source.

What was measured:
[1] = test system: tsFT210 cells (mouse breast cancer cells CDC2 temperature sensitive strain); experiment: Growth-inhibiting activity against animal cells (WST-8), tsFT210; format: cell-based
Experimental: (§1) HL-60 cells (human acute promyelocytic leukemia cell line) and K562 cells (human chronic myeloid leukemia cell line) were maintained in a culture medium in which RPMI1640 medium (manufactured by Invitrogen) was added with 10% fetal bovine serum (manufactured by Nichirei), 0.5% penicillin/streptomycin solution (manufactured by Invitrogen) at 37° C. under a humidified culture of 5% CO2. tsFT210 cells (mouse breast cancer cells CDC2 temperature sensitive strain) were maintained in a culture medium in which RPMI1640 medium (manufactured by Invitrogen) was added with 5% calf serum (manufactured by Hyclone) and 0.5% penicillin/streptomycin solution at 32° C. under a humidified culture of 5% CO2.
(§2) HL-60 cells and K562 cells were seeded in a 96-well plate (manufactured by IWAKI) so as to be 1.5×10^4 cells/well/100 μl. tsFT210 cells were seeded in a 96-well plate so as to be 1.6×10^4 cell/well/100 μl. Each of the agents in Table 5 was added at 0.5% (v/v). HL-60 cells and K562 cells were maintained at 37° C. under a humidified culture of 5% CO2 and tsFT210 cells were maintain at 32° C. under a humidified culture of 5% CO2. Forty eight hours after addition of the agent, 10 μl of a reagent SF solution for counting live cells (WST-8 reagent, manufactured by Nakarai tesque) was added to each well. HL-60 cells and K562 cells were maintained at 37° C. under a humidified culture of 5% CO2 for 30 minutes and tsFT210 cells were maintain at 32° C. under a humidified culture of 5% CO2 for one hour. After the reaction, absorbance at 450 nm was measured using a microplate reader (manufactured by PerkinElmer) and a cell proliferation rate was determined from the measurement value.

[2] = test system: Budding yeast (MLC30M strain); experiment: Growth-inhibiting activity against yeast; format: cell-based; conditions: Saccharomyces cerevisiae, read-out: Yeast IC50
Experimental: Budding yeast (MLC30M strain) was precultured in a culture medium of 2% Polypeptone, 1% yeast extract, 2% glucose, 0.02% adenine, and 0.001% sodium dodecyl sulfate (SDS) at 30° C. Absorbance at 600 nm was measured, and yeast solution was prepared such that the absorbance is 0.05 and seeded 100 μl each in a 96-well plate. Each of the agents in Table 5 was added at 0.5% (v/v) and maintained at 30° C. Eighteen hours after addition of the agent, absorbance at 600 nm was measured using a microplate reader (manufactured by PerkinElmer) and a proliferation rate was determined from the measurement value.

[3] = test system: Escherichia coli (HO141 strain); experiment: Growth-inhibiting activity against Escherichia coli; format: cell-based; conditions: 6 hours, absorbance at 600 nm, read-out: E. coli IC50
Experimental: Escherichia coli (HO141 strain) was precultured in culture medium of 0.5% Polypeptone, 0.5% Meat Extract, 0.3% NaCl, and 0.001% Sodium Dodecyl Sulfate (SDS) at 37° C. Absorbance at 600 nm was measured, and Escherichia coli solution was prepared such that the absorbance is 0.005 and seeded 100 μl each in a 96-well plate. Each of the agents in Table 5 was added at 0.5% (v/v) and maintained at 37° C. Six hours after addition of the agent, absorbance at 600 nm was measured using a microplate reader (manufactured by PerkinElmer) and a proliferation rate was determined from the measurement value.

[4] = test system: K562 cells (human chronic myeloid leukemia cell line); experiment: Growth-inhibiting activity against animal cells (WST-8), K562; format: cell-based
Experimental: as §1, §2

[5] = test system: HL-60 cells (human acute promyelocytic leukemia cell line); experiment: Growth-inhibiting activity against animal cells (WST-8), HL-60; format: cell-based; conditions: for IC50: Homo sapiens, read-out: HL60 IC50
Experimental: as §1, §2

[6] = molecular target: T1, Isoleucyl tRNA synthetase (Homo sapiens, UniProt P41252); experiment: Inhibitory activity against isoleucyl tRNA synthetase; format: biochemical; conditions: HT1080 cell lysate, [3H]isoleucine, 25° C., 20 minutes; read-out: IRS IC50 (converted)
T1 construct: 10 μg protein (HT1080 cell lysate); endogenous in cells; host or cells: HT1080 cell lysate
T1 sequence (P41252 1-1262): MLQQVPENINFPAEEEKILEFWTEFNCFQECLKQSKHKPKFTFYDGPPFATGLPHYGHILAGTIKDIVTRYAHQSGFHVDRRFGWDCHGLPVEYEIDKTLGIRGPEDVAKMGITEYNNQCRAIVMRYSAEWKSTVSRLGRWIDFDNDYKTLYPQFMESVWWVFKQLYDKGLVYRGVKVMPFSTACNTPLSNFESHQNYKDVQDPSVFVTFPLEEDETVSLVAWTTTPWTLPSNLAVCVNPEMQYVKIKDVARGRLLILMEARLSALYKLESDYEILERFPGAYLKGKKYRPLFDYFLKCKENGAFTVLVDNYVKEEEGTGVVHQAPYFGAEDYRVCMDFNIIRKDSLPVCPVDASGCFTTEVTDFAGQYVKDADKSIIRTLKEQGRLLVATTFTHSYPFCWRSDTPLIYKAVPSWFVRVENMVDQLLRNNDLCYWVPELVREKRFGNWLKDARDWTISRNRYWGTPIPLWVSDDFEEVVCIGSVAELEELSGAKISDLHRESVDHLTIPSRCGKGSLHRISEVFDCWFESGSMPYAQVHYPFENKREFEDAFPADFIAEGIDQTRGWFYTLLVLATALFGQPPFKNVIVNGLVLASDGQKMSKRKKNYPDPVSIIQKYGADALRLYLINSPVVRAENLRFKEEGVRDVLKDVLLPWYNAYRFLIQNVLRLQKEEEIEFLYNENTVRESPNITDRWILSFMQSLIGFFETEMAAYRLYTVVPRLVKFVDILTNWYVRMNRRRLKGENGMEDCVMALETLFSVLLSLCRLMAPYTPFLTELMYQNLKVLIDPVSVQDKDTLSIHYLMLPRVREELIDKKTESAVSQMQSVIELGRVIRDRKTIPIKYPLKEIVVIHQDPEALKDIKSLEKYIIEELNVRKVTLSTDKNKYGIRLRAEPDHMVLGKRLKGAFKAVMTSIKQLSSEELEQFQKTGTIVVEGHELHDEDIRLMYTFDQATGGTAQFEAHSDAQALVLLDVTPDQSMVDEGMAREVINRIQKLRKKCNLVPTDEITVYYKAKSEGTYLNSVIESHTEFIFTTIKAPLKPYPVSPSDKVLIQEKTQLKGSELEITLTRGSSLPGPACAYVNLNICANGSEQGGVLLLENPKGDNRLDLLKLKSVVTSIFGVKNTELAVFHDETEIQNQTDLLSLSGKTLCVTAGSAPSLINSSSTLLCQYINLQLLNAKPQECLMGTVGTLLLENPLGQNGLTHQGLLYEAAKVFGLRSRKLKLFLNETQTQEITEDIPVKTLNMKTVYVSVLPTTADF
Experimental: To a solution for enzymatic reaction [20 mM imidazole, pH 7.5, 75 mM MgCl2, 0.5 mM DTT, 1 U/ml tRNA (E. coli origin, manufactured by Sigma), 3 mM ATP, 1 μM isoleucine, 10 μCi/ml [^3H]isoleucine (manufactured by GE Healthcare), 10 μg protein (HT1080 cell lysate)], each of the agents in Table 5 was added at 1% (v/v) so as to attain a total amount of 100 μl and a reaction was carried out at 25° C. for 20 minutes. One mg/ml BSA solution (400 μl) and 10% TCA solution (500 μl) were then added thereto to terminate the reaction and left to stand at 4° C. overnight. A precipitate obtained by a centrifugal operation was transferred onto GF-C filter (manufactured by Whatman), washed three times with 5% TCA solution, followed by drying the filter. Two milliliters of aquasol-2 (manufactured by PerkinElmer) and the filter were placed in a vial and vigorously stirred, and then the amount of [^3H]isoleucine was measured by a liquid scintillation counter (manufactured by Beckman) to determine a rate of enzyme activity.

[7] = tsFT210 cells, 32° C., 48 hours after addition of the agent, WST-8, read-out: tsFT210 IC50
[8] = MLC30M strain, 18 hours, absorbance at 600 nm
[9] = K562 cells, 48 hours after addition of the agent, WST-8, read-out: K562 IC50
[10] = HL-60 cells, 48 hours after addition of the agent, WST-8
[11] = tsFT210, 48 h, read-out: tsFT210 IC50
[12] = K562, 48 h, read-out: K562 IC50

SMILES | IC50 [1, 7] | IC50 [2, 8] | IC50 [3] | IC50 [4, 9] | IC50 [5, 10] | IC50 [6] | IC50 [1, 11] | IC50 ([2]; 18 h) | IC50 [4, 12] | IC50 ([5]; HL-60, 48 h) | cancer cell growth-inhibiting activity (in words) ([5]; summary of Table 5 (HL60, K562, tsFT210), RM-T as compared with RM-A)
CCCCC(CCC(O)CCC(C)C(O)C/C=C(C)/C=C/C(O)C(C)/C=C/C(=O)O)C(O)/C=C/C(C)=C/CC(O)CC (stereo not drawn) [RM-A1a] | > 30 µg/mL | > 50 µg/mL | > 50 µg/mL | > 30 µg/mL | 20.9 µg/mL (≈ 35.3 µM) |  |  |  |  |  | 
CCCCC1CCC(CCC(C)C(O)C/C=C(C)/C=C/C(O)C(C)/C=C/C(=O)O)OC1/C=C/C(C)=C/CC(O)CC (stereo not drawn) [RM-A1b] | 17.4 µg/mL (≈ 30.3 µM) | > 50 µg/mL | 31.9 µg/mL (≈ 55.5 µM) | 21.1 µg/mL (≈ 36.7 µM) | 7.4 µg/mL (≈ 12.9 µM) |  |  |  |  |  | 
CCCCC1CCC2(CCC(C)C(C/C=C(C)/C=C/C(O)C(C)/C=C/C(=O)O)O2)OC1/C=C/C(C)=C/CC(O)CC (stereo not drawn) [RM-A1c] |  |  | > 50 µg/mL |  |  | 16.8 µM | 6.4 µg/mL (≈ 11.2 µM) | > 50 µg/mL | 3.4 µg/mL (≈ 5.94 µM) | 6.3 µg/mL (≈ 11 µM) | 
CCCCC(CCC(O)CCC(C)C(O)C/C=C(C)/C=C/C(O)C(C)/C=C/C(=O)O)C(O)/C=C/C(C)=C/C(=O)O (stereo not drawn) [RM-A1e] | > 30 µg/mL | 48.2 µg/mL (≈ 85.3 µM) | > 50 µg/mL | > 30 µg/mL | > 30 µg/mL |  |  |  |  |  | 
CCCCC(CCC(O)CCC(C)C(O)C/C=C(C)/C=C/C(O)C(C)/C=C/C(=O)O)C(O)C/C=C(C)/C=C/C(=O)CC (stereo not drawn) [RM-A2b] | > 30 µg/mL | > 50 µg/mL | > 50 µg/mL | > 30 µg/mL | > 30 µg/mL |  |  |  |  |  | 
CCCCC1CCC2(CCC(C)C(C/C=C(C)/C=C/C(O)C(C)/C=C/C(=O)O)O2)OC1/C=C/C(C)=C/CO (stereo not drawn) [RM-A6a] |  |  | 24.6 µg/mL (≈ 46.3 µM) |  |  |  | 6.8 µg/mL (≈ 12.8 µM) | 31.5 µg/mL (≈ 59.4 µM) | 14.8 µg/mL (≈ 27.9 µM) | 7 µg/mL (≈ 13.2 µM) | 
CCCCC1CCC2(CCC(C)C(C/C=C(C)/C=C/C(O)C(C)/C=C/C(=O)O)O2)OC1/C=C/C(C)=C/COC(=O)CC (stereo not drawn) [RM-A8a] |  |  | > 50 µg/mL |  |  |  | 22.3 µg/mL (≈ 38 µM) | > 50 µg/mL | 18.5 µg/mL (≈ 31.5 µM) | 18 µg/mL (≈ 30.7 µM) | 
CCCC[C@@]1(OC(=O)CCC(=O)O)CC[C@]2(CC[C@H](C)[C@@H](C/C=C(C)/C=C/[C@H](O)[C@@H](C)/C=C/C(=O)O)O2)O[C@H]1/C=C/C(C)=C/CO [RM-A9a] |  |  | > 50 µg/mL |  |  |  | 24.6 µg/mL (≈ 38 µM) | 26.4 µg/mL (≈ 40.8 µM) | 22.3 µg/mL (≈ 34.5 µM) | 21 µg/mL (≈ 32.5 µM) | 
CCCC[C@H]1CC[C@]2(CC[C@H](C)[C@@H](C/C=C(C)/C=C/[C@H](O)[C@@H](C)/C=C/C(=O)OC)O2)O[C@H]1/C=C/C(C)=C/C(=O)O [RM-T methyl-ester] |  |  | > 50 µg/mL |  |  |  | 8.2 µg/mL (≈ 14.7 µM) | > 50 µg/mL | 2.5 µg/mL (≈ 4.47 µM) | 0.9 µg/mL (≈ 1.61 µM) | high
CC(/C=C/[C@H](O)[C@@H](C)/C=C/C(=O)O)=C\C[C@H]1O[C@@]2(CC[C@H](C)[C@H](/C=C/C(C)=C/C(=O)O)O2)CC[C@@H]1C [SF-A, spirofungin A, reference compound] | > 30 µg/mL | 0.3 µg/mL (≈ 0.597 µM) | > 50 µg/mL | 3.4 µg/mL (≈ 6.76 µM) | 1.2 µg/mL (≈ 2.39 µM) |  |  |  |  |  | 
CC(/C=C/[C@H](O)[C@@H](C)/C=C/C(=O)O)=C\C[C@H]1O[C@]2(CC[C@H](C)[C@H](/C=C/C(C)=C/C(=O)O)O2)CC[C@@H]1C [SF-B, spirofungin B, reference compound] | > 30 µg/mL | 4 µg/mL (≈ 7.96 µM) | > 50 µg/mL | > 30 µg/mL | > 30 µg/mL |  |  |  |  |  | 
